{"source": "patent US5122448A", "about": "“Assay of anti-Epstein-Barr virus nuclear antigen antibodies with synthetic polypeptides” (Scripps Clinic and Research Foundation, priority 1990, dated 1992)", "key": {"[1]": {"test_system": "anti-EBNA antibodies", "test": "ELISA with polypeptide as solid phase antigen, anti-polypeptide activity of sera (OD405)", "format": "binding, human", "settings": "for OD405 × 10^3 obtained with Patient Antibodies to peptide: serum 1:20"}, "[2]": {"test_system": "EBNA", "test": "Immunoblot of WI-L2 whole cell extracts with rabbit antipeptide antisera, blocking by polypeptide", "format": "binding, Epstein-Barr virus", "settings": "serum 1:10, 40 ug/ml polypeptide P62, one hour", "experimental": "Exemplary receptor molecules containing antibody combining sites of this invention raised in rabbits to the polypeptides shown in Table 1 were studied using the immunoblotting procedures of Towbin, et. al., Proc. Natl. Acad. Sci., U.S.A., 76:4350-4354 (1979) and Billings, et. al., Proc. Natl. Acad. Sci., U.S.A., 80:7104-7108 (1983). Further details are provided in the Materials and Methods section (III).\nExtracts of EBNA producing and non-producing (control) cells were prepared to determine if receptor molecules of this invention were useful for diagnosing EBNA expression. Cells from cultures described hereinabove were washed in phosphate-buffered saline (PBS; 150 mM NaCl, 10 mM sodium phosphate, pH 7.4) containing 0.2 mM phenylmethylsulfonyl fluoride, swollen for 5 minutes in reticulocyte standard buffer (RSB; 10 mM NaCl, 10 mM Tris-HCl, pH 7.4, 1.5 mM MgCl2, 0.2 mM phenylmethylsulfonyl fluoride), and lysed by sonication in 3-5 volumes of RBS adjusted to 0.2-0.35 molar (M) NaCl. After 30 minutes on ice, the sonicate was centrifuged at 10,000×g for 15 minutes to remove cellular debris.\nCell extracts obtained above were assayed for EBNA using human sera known to contain anti-EBNA antibodies or exemplary receptor molecules of this invention. The extracts were either concentrated by precipitation with 2 volumes of ethanol at -20 degrees C. for about 18 hours, and were then dissolved in sample buffer [SB; 10% glycerol, 2% 2-mercaptoethanol, 1% sodium dodecyl sulfate (SDS), 0.002% bromphenol blue, 40 mM Tris-HCl (pH 7.4)] or diluted 1:6 in sample buffer for SDS-polyacrylamide gel electrophoresis (SDS-PAGE). 7.5% Polyacrylamide gels were cast and run according to the procedure of Laemmli, Nature, […] (1970), applying 50 to 200 micrograms of total protein per lane. […]\nAnti-peptide antibodies bound to EBNA protein were detected by reacting the blots with an indicating means. […]"}, "[3]": {"test": "Circular dichroism spectroscopy", "format": "physicochemical", "settings": "1 mg/ml in phosphate buffered saline", "experimental": "The conformational properties of the polypeptides were investigated to elucidate any secondary structure that might be necessary for polypeptide immunoreaction with human anti-EBNA antibodies. The polypeptides were dissolved at a concentration of 1 mg/ml in phosphate-buffered saline (PBS). Spectra were taken using 1 ml samples in a Cary 61 spectropolarimeter (Cary Instruments, Applied Physics Corp., Monrovia, Calif.) interfaced and automated with a Digital Equipment Corporation 11/02 computer (Digital Equipment Corporation, Maynard, Mass.)."}, "[4]": {"test_system": "anti-EBNA antibodies (IgM, IgG)", "settings": "405 nanometer"}, "[5]": {"test_system": "antibodies to EBNA-1 and autoantigens", "settings": "cited from earlier work"}, "[6]": {"settings": "Patient 15, 1 Month after infection"}, "[7]": {"settings": "Patient 15, 1 Week after infection"}, "[8]": {"settings": "Patient 15, 3 Months after infection"}, "[9]": {"settings": "Patient 15, 12 Months after infection"}, "[10]": {"settings": "Patient 15, 21 Months after infection"}, "[11]": {"settings": "Patient three, 1 Month after infection"}, "[12]": {"settings": "Patient three, 1 Week after infection"}, "[13]": {"settings": "Patient three, 3 Months after infection"}, "[14]": {"settings": "Patient three, 21 Months after infection"}}, "note": "Read-outs that look alike come from different tables or passages of the source. Residues, ends and D or L forms follow the SMILES beside them.", "data": [{"smiles": "C[C@H](N)C(=O)NCC(=O)N[C@@H](C)C(=O)NCC(=O)NCC(=O)NCC(=O)N[C@@H](C)C(=O)NCC(=O)NCC(=O)N[C@@H](C)C(=O)NCC(=O)N[C@@H](C)C(=O)NCC(=O)NCC(=O)NCC(=O)N[C@@H](C)C(=O)NCC(=O)NCC(=O)N[C@@H](C)C(=O)NCC(=O)O", "note": "[Polypeptide P62, H--Ala--Gly--Ala--Gly--Gly--Gly--Ala--Gly--Gly--Ala--Gly--Ala--Gly--Gly--Gly--Ala--Gly--Gly--Ala--Gly--OH] (H-AGAGGGAGGAGAGGGAGGAG-OH)", "values": [{"measurement": "Reactivity of sera of EBV non-immune donors to polypeptide", "setting": "[1]; 27 EBV non-immune (VCA-) donors", "result": "None of the sera displayed significant reactivity"}, {"measurement": "Number of anti-EBNA positive sera positive against (bound to) polypeptide", "setting": "[1]; 91 ACIF anti-EBNA positive sera, 1:20 dilution", "result": 91}, {"measurement": "Number of EBNA positive sera that immunoreacted with polypeptide", "setting": "[1]; 91 EBNA positive sera, dilution 1:320", "result": 83}, {"measurement": "Titer of PSS patients versus normals", "setting": "[1]; Progressive Systemic Schlerosis patients", "result": "relatively higher average titer"}, {"measurement": "Reaction of VCA+ sera with polypeptide", "setting": "[1]; clinically normal VCA+ individuals, two dilutions", "result": "all of the VCA^+ individuals were positive"}, {"measurement": "Reaction of VCA- sera with polypeptide", "setting": "[1]; panel of 19 VCA- sera", "result": "None of the VCA^- sera were found to react positively"}, {"measurement": "OD405 × 10^3 obtained with Patient Antibodies to peptide", "setting": "[1]; MV post-mononucleosis", "result": 631, "unit": "OD405 × 10^3"}, {"measurement": "OD405 × 10^3 obtained with Patient Antibodies to peptide", "setting": "[1]; MV pre-mononucleosis", "result": 77, "unit": "OD405 × 10^3"}, {"measurement": "OD405 × 10^3 obtained with Patient Antibodies to peptide", "setting": "[1]; SB post-mononucleosis", "result": 514, "unit": "OD405 × 10^3"}, {"measurement": "OD405 × 10^3 obtained with Patient Antibodies to peptide", "setting": "[1]; SB pre-mononucleosis", "result": 13, "unit": "OD405 × 10^3"}, {"measurement": "OD405 × 10^3 obtained with Patient Antibodies to peptide", "setting": "[1]; VCA+ Normal 1", "result": 958, "unit": "OD405 × 10^3"}, {"measurement": "OD405 × 10^3 obtained with Patient Antibodies to peptide", "setting": "[1]; VCA+ Normal 2", "result": 819, "unit": "OD405 × 10^3"}, {"measurement": "Recognition of EBNA by anti-P62 serum after preincubation with polypeptide", "setting": "[2]", "result": "inhibited"}, {"measurement": "Conformation by circular dichroism spectrum", "setting": "[3]", "result": "relatively stable secondary structure"}, {"measurement": "IgG antipeptide activity", "setting": "[4]; [6]", "result": 118, "unit": "Optical density"}, {"measurement": "IgM antipeptide activity", "setting": "[4]; [6]", "result": 225, "unit": "Optical density"}, {"measurement": "IgG antipeptide activity", "setting": "[4]; [7]", "result": 113, "unit": "Optical density"}, {"measurement": "IgM antipeptide activity", "setting": "[4]; [7]", "result": 152, "unit": "Optical density"}, {"measurement": "IgG antipeptide activity", "setting": "[4]; [8]", "result": 118, "unit": "Optical density"}, {"measurement": "IgM antipeptide activity", "setting": "[4]; [8]", "result": 208, "unit": "Optical density"}, {"measurement": "IgG antipeptide activity", "setting": "[4]; [9]", "result": 375, "unit": "Optical density"}, {"measurement": "IgM antipeptide activity", "setting": "[4]; [9]", "result": 249, "unit": "Optical density"}, {"measurement": "IgG antipeptide activity", "setting": "[4]; [10]", "result": 994, "unit": "Optical density"}, {"measurement": "IgM antipeptide activity", "setting": "[4]; [10]", "result": 185, "unit": "Optical density"}, {"measurement": "IgG antipeptide activity", "setting": "[4]; [11]", "result": 37, "unit": "Optical density"}, {"measurement": "IgM antipeptide activity", "setting": "[4]; [11]", "result": 87, "unit": "Optical density"}, {"measurement": "IgG antipeptide activity", "setting": "[4]; [12]", "result": 80, "unit": "Optical density"}, {"measurement": "IgM antipeptide activity", "setting": "[4]; [12]", "result": 245, "unit": "Optical density"}, {"measurement": "IgG antipeptide activity", "setting": "[4]; [13]", "result": 60, "unit": "Optical density"}, {"measurement": "IgM antipeptide activity", "setting": "[4]; [13]", "result": 136, "unit": "Optical density"}, {"measurement": "IgG antipeptide activity", "setting": "[4]; [14]", "result": 600, "unit": "Optical density"}, {"measurement": "IgM antipeptide activity", "setting": "[4]; [14]", "result": 145, "unit": "Optical density"}, {"measurement": "IgG antipeptide activity", "setting": "[4]; Patient three, Pre Infection", "result": 74, "unit": "Optical density"}, {"measurement": "IgM antipeptide activity", "setting": "[4]; Patient three, Pre Infection", "result": 103, "unit": "Optical density"}, {"measurement": "Immunoreactivity with sera from patients with acute EBV infection", "setting": "[5]", "result": "most immunoreactive"}, {"measurement": "Inhibition of IgG antibodies to EBNA-1", "setting": "[5]", "result": "can also be inhibited"}]}]}
